Source: patent US9771351B2, “Wnt signaling inhibitor” (KYOWA HAKKO KIRIN CO., LTD., priority 2013, dated 2017)
Read-outs that look alike come from different tables or passages of the source.

Assays:
[1] = tested on: T-cell factor (TCF)-luciferase reporter using Wnt pathway as index; assay: Inhibitory activity against TCF-luciferase reporter using Wnt pathway as index (DLD-1/TCF-Luc cells); type: cell-based, human; settings: Homo sapiens, read-out: Inhibition ratio (%) at 1 μmol/L
How it was run: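 Human colorectal DLD-1 cells stably carrying a TCF-responsive luciferase reporter (pGL4.27) were exposed to test compound for 18 h at 37 °C. Luciferase luminescence read; % inhibition calculated relative to control and blank wells, reported at 1 μmol/L.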

tankyrase-2 = molecular target: T1, tankyrase-2 (Homo sapiens, UniProt Q9H2K2); assay: Tankyrase-2 enzyme inhibition test (Tankyrase-2 Chemiluminescent Assay Kit); type: biochemical; settings: autoribosylation of GST-tankyrase-2 fusion protein, chemiluminescence
T1 construct: purchased BPS Bioscience, Inc. 80566
T1 sequence (Q9H2K2 1-1166): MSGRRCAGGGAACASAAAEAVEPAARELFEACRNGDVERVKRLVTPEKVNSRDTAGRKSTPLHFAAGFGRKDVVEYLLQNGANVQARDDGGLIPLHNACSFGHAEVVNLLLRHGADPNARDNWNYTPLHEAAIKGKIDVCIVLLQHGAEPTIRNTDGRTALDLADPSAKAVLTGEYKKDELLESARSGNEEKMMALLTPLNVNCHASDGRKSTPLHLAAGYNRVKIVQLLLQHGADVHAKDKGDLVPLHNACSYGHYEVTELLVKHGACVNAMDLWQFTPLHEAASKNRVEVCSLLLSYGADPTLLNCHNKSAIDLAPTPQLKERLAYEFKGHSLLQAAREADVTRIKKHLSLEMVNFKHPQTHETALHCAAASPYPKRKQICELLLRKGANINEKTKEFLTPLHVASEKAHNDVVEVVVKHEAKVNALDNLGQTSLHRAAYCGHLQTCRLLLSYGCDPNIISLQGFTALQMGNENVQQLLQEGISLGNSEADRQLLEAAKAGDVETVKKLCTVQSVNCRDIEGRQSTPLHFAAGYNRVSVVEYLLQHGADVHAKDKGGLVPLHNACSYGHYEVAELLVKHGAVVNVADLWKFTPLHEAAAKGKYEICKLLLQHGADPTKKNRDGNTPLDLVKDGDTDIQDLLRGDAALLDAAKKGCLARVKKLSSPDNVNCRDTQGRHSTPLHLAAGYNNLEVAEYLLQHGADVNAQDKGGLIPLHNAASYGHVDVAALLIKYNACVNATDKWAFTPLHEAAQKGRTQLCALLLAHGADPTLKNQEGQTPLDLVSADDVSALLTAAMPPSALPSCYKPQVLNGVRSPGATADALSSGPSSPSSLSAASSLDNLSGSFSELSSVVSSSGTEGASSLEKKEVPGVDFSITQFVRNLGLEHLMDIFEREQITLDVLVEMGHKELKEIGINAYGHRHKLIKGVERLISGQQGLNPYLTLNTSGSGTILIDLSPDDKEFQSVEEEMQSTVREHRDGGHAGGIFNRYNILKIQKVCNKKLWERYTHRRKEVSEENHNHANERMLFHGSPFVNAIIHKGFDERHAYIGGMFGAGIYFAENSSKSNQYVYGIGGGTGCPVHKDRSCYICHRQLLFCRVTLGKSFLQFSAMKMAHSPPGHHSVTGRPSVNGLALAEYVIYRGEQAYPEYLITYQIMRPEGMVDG
Protocol: Test Example 2: Tankyrase-2 Enzyme Inhibition Test
The enzyme activity of tankyrase-2 was evaluated using Tankyrase-2 Chemiluminescent Assay Kit (BPS Bioscience, Inc., Catalog No. 80566). The Tankyrase-2 Chemiluminescent Assay Kit is a kit for evaluating the enzyme activity of tankyrase-2 using autoribosylation of glutathione-S-transferase (GST)-tankyrase-2 fusion protein as an index. All the experimental materials except for PBS (PBST) buffer containing phosphate-buffered saline (PBS) and 0.05% Tween 20 are all included in the kit. The GST-tankyrase-2 enzyme diluted with 50 μL of 1× tankyrase buffer was added to the wells of a 96-well plate coated with glutathione. After the plate was left to stand overnight at 4° C., the plate was washed 3 times with the PBST buffer. 150 μL of blocking buffer was added thereto, and the plate was left to stand at room temperature for 30 minutes to block the wells. The plate was washed 3 times with the PBST buffer. Before the ribosylation reaction, an assay mixture containing a biotinylated substrate and a test compound diluted with 1× tankyrase buffer were mixed, whereby a reaction mixture was prepared. In order to start the ribosylation reaction, 50 μL of the reaction mixture was added to the wells. In a blank well, 1× tankyrase buffer was added in place of the reaction mixture containing a biotinylated substrate. The plate was left to stand at 30° C. for 1 hour. After the reaction, the plate was washed 3 times with the PBST buffer. Streptavidin-horseradish peroxidase (HRP) was diluted to 50-fold with the blocking buffer. The diluted streptavidin-HRP was added to the wells, and the plate was left to stand at room temperature for 30 minutes. The plate was washed 3 times with the PBST buffer. Immediately before use, 50 μL of the HRP chemiluminescent substrate A and 50 μL of the HRP chemiluminescent substrate B were mixed and 100 μL of the resulting mixture was added to the wells. The chemiluminescence was measured using a chemiluminescence measuring apparatus. The inhibition ratio was obtained according to the following formula 2. [Math. 2] Inhibition ratio (%)=100−{(chemiluminescence intensity when test compound was added)−(chemiluminescence intensity of blank)}/{(chemiluminescence intensity of control)−(chemiluminescence intensity of blank)}×100 Formula 2

[2] = 1 μmol/L, DLD-1/TCF-Luc cells, luciferase activity after 18 hours

| SMILES | Inhibition ratio (%) at 1 μmol/L (tankyrase-2) | inhibition at 1 µM [1, 2] | inhibition at 1 µM ([1]; DLD-1, 18 h) |
| --- | --- | --- | --- |
| N#Cc1cc(N2C(=O)N(CC3CCN(c4ncnc5cc(N6CCOCC6)ccc45)CC3)Cc3ccccc32)ccn1 [Compound 37, 4-(3-{[1-(7-Morpholinoquinazolin-4-yl)piperidin-4-yl]methyl}-2-oxo-3,4-dihydroquinazolin-1(2H)-yl)picolinonitrile] | 87% | – | 82% |
| N#Cc1cc(N2C(=O)N(CC3CCN(c4nccn5ccnc45)CC3)Cc3ccccc32)ccn1 [Compound 30, 4-(3-{[1-(Imidazo[1,2-a]pyrazin-8-yl)piperidin-4-yl]methyl}-2-oxo-3,4-dihydroquinazolin-1(2H)-yl)picolinonitrile] | 92% | – | 69% |

The next lines start with results.

| Inhibition ratio (%) at 1 μmol/L (tankyrase-2) | SMILES | inhibition at 1 µM [1, 2] | inhibition at 1 µM ([1]; DLD-1, 18 h) |
| --- | --- | --- | --- |
| 92% | COc1cc2ncnc(N3CCC(CN4Cc5nccnc5N(c5ccnc(C#N)c5)C4=O)CC3)c2cc1OC [Compound 24, 4-(3-{[1-(6,7-Dimethoxyquinazolin-4-yl)piperidin-4-yl]methyl}-2-oxo-3,4-dihydropteridin-1(2H)-yl)picolinonitrile] | 86% | – |
| 95% | COc1cc2ncnc(N3CCC(CN4Cc5ccccc5N(c5ccc(F)c(C#N)c5)C4=O)CC3)c2cc1OC [Compound 7, 5-(3-{[1-(6,7-Dimethoxyquinazolin-4-yl)piperidin-4-yl]methyl}-2-oxo-3,4-dihydroquinazolin-1(2H)-yl)-2-fluorobenzonitrile] | 76% | – |
| 92% | COc1cc2ncnc(N3CCC(CN4Cc5ccccc5N(c5ccc(C(=O)O)c(C#N)c5)C4=O)CC3)c2cc1OC [Compound 15, 2-Cyano-4-(3-{[1-(6,7-dimethoxyquinazolin-4-yl)piperidin-4-yl]methyl}-2-oxo-3,4-dihydroquinazolin-1(2H)-yl)benzoic acid] | 84% | – |
